pIC50: −log10 of the molar value.
Biological target: truncated form of human NaV 1.8 with full channel activity (Homo sapiens, UniProt Q9Y5Y9)
Assay: E-VIPR Assay Method A for detecting and measuring Nav inhibition (HEK cells, membrane potential FRET dyes, electrical stimulation)
Assay type: cell-based
Details: HEK cells expressing human NaV 1.8, HS (human serum) in compound loading buffer, 11 point dose response, top dose 3 μM, Table 20A, read-out: Nav 1.8 MedChem Optical Assay EVIPR Assay Method A HS IC50
Text: E-VIPR Assay Method A for Detecting and Measuring Nav Inhibition Properties Sodium ion channels are voltage-dependent proteins that can be activated by inducing membrane voltage changes by applying electric fields. The electrical stimulation instrument and methods of use, referred to as E-VIPR, are described in International Publication No. WO 2002/008748 A3 and C.-J. Huang et al. Characterization of voltage-gated sodium channel blockers by electrical stimulation and fluorescence detection of membrane potential, 24 Nature Biotech. 439-46 (2006), both of which are incorporated by reference in their entirety. The instrument comprises a microtiter plate handler, an optical system for exciting the coumarin dye while simultaneously recording the coumarin and oxonol emissions, a waveform generator, a current- or voltage-controlled amplifier, and parallel electrode pairs that are inserted into assay plate wells. Under integrated computer control, this instrument passes user-programmed electrical stimulus protocols to cells within the wells of the microtiter plate. […] Sigma #F4135), 1% NEAA (Non-Essential Amino Acids, Life Tech #11140), 1% HEPES (Life Tech #15630), 1% Pen-Strep (Penicillin-Streptomycin; […] Cells were expanded in vented cap flasks, with 95% humidity and 5% CO2. Reagents and Stock Solutions: • 100 mg/mL Pluronic F-127 (Sigma #P2443), in dry DMSO • Compound Plates: […] 5% KIR 2.1 Bacmam virus (produced in-house), prepared as described in Section 3.3 of J. A. […] The solution was made by adding 10% Pluronic F127 stock equal to combined volumes of CC2-DMPE and DiSBAC6(3). The order of preparation was first mix Pluronic and CC2-DMPE, then add DiSBAC6(3), then while vortexing add Bath1/β-Cyclodextrin. […] Assay Protocol: […] Final DMSO concentration for all wells in the assay was 0.625% (0.75% DMSO was supplemented to the Compound Loading Buffer for a final DMSO concentration of 0.625%). […] 3) Cell plates were prepared. On the day of the assay, the media was aspirated, and the cells were washed three times with 80 μL of Bath-1 buffer, maintaining 25 μL residual volume in each well. 4) 25 μL per well of Hexyl Dye Solution was dispensed into the cell plates. The cells were incubated for 20 minutes at room temp or ambient conditions in darkness. 5) 80 μL per well of Compound Loading Buffer was dispensed into compound plates. 6) The cell plates were washed three times with 80 μL per well of Bath-1 Buffer, leaving 25 µL of residual volume. Then 25 uL per well from compound plate was transferred to each cell plate. The mixture was incubated for 30 minutes at room temp/ambient conditions. 7) The plate was read on E-VIPR using the current-controlled amplifier to deliver stimulation wave pulses using the following protocol: 1.25 Amps, 2.5 ms pulse width biphasic waveform, 10 Hz for 10 seconds at a scan rate of 200 Hz. A pre-stimulus recording was performed for 0.5 seconds to obtain the un-stimulated intensities baseline. The stimulatory waveform was followed by 0.5 seconds of post-stimulation recording to examine the relaxation to the resting state. Data Analysis: Data were analyzed and reported as normalized ratios of emission intensities measured in the 460 nm and 580 nm channels. The response as a function of time was reported as the ratios obtained using the following formula: […] The data were further reduced by calculating the initial (Ri) and final (Rf) ratios. These were the average ratio values during part or all of the pre-stimulation period and during sample points during the stimulation period. The fluorescence ratio (Rf/Ri) was then calculated and reported as a function of time. Control responses were obtained by performing assays in the presence of the positive control, and in the absence of pharmacological agents (DMSO vehicle negative control). Responses to the negative (N) and positive (P) controls were calculated as above. The compound antagonist % activity A was then defined as: [formula] where X is the ratio response of the test compound. […]

Sequence of truncated form of human NaV 1.8 with full channel activity (Q9Y5Y9 126-1722 limits assumed): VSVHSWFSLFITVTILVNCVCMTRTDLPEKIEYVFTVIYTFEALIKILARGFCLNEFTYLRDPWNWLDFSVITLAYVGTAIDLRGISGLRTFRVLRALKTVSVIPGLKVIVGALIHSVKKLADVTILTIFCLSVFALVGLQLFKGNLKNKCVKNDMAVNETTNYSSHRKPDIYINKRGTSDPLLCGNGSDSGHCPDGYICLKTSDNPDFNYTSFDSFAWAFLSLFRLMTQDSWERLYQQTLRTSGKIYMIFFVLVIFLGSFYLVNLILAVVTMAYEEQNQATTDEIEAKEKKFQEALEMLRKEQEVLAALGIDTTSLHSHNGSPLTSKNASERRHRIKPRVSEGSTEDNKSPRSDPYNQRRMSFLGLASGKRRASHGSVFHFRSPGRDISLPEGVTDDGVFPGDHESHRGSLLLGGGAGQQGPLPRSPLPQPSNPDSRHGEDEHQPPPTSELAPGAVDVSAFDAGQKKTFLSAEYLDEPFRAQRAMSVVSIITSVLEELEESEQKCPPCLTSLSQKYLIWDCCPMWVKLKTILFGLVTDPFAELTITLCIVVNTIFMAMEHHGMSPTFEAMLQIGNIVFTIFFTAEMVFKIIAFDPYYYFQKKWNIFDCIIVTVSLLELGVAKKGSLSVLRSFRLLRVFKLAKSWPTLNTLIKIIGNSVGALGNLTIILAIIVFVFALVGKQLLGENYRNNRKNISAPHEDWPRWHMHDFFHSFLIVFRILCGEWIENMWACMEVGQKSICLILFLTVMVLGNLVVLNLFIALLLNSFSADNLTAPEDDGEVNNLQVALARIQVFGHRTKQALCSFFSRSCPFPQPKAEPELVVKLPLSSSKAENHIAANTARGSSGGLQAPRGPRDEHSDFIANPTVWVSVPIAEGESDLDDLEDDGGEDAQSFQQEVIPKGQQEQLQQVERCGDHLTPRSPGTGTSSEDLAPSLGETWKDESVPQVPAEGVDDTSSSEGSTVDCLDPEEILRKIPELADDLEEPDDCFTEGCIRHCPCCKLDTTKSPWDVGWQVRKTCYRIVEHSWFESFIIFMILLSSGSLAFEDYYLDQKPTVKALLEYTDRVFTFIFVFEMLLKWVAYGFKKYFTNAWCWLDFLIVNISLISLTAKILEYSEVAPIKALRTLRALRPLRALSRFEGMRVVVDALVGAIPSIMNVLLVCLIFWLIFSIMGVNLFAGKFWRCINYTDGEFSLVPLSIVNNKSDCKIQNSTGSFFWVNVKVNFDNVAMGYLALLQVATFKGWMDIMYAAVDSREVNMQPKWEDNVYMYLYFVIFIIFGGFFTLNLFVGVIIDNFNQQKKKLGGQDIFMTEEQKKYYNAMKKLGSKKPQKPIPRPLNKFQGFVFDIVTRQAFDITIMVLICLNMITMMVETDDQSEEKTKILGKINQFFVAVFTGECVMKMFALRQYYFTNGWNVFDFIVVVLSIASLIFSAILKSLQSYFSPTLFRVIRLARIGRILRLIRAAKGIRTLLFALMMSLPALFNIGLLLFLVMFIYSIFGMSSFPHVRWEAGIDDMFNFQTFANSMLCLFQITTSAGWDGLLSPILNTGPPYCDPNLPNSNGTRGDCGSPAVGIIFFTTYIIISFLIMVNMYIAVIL

| SMILES | pIC50 |
| --- | --- |
| COc1cc(OC(F)(F)F)ccc1Oc1cc(C2CC2)c(F)cc1C(=O)Nc1ccnc(C(N)=O)c1 [Compound 116, 4-[[4-Cyclopropyl-5-fluoro-2-[2-methoxy-4-(trifluoromethoxy)phenoxy]benzoyl]amino]pyridine-2-carboxamide] | 6.84 |
| COc1nc(Cl)ccc1Oc1ccc(C(F)(F)F)c(F)c1C(=O)Nc1ccc(C(N)=O)c(F)c1 [Compound 67, N-(4-carbamoyl-3-fluoro-phenyl)-6-[(6-chloro-2-methoxy-3-pyridyl)oxy]-2-fluoro-3-(trifluoromethyl)benzamide] | 7.38 |
| COc1cc(OC(F)(F)F)ccc1Oc1ccc(Cl)c(F)c1C(=O)Nc1cc(C(N)=O)ncc1C [Compound 189, 4-[[3-Chloro-2-fluoro-6-[2-methoxy-4-(trifluoromethoxy)phenoxy]benzoyl]amino]-5-methyl-pyridine-2-carboxamide] | 8.22 |
| COc1cc(OC(F)(F)F)ccc1Oc1ccc(C(F)(F)F)c(F)c1C(=O)Nc1cncc(C(N)=O)c1 [Compound 52, 5-[[2-fluoro-6-[2-methoxy-4-(trifluoromethoxy)phenoxy]-3-(trifluoromethyl)benzoyl]amino]pyridine-3-carboxamide] | 7.85 |
| NC(=O)c1cc(NC(=O)c2c(Oc3ccc(OC(F)(F)F)cc3)ccc(C(F)(F)F)c2F)ccc1O [Compound 85, N-(3-carbamoyl-4-hydroxy-phenyl)-2-fluoro-6-[4-(trifluoromethoxy)phenoxy]-3-(trifluoromethyl)benzamide] | 6.49 |
| [2H]C([2H])([2H])Oc1c(Oc2ccc(C(F)(F)F)c(F)c2C(=O)Nc2ccc(C(N)=O)nc2)ccc(OC(F)(F)F)c1F [Compound 221, 5-[[2-Fluoro-6-[3-fluoro-2-(trideuteriomethoxy)-4-(trifluoromethoxy)phenoxy]-3-(trifluoromethyl)benzoyl]amino]pyridine-2-carboxamide] | 7.85 |
| COc1cc(OC(F)(F)F)ccc1Oc1cc(C(C)(C)F)ncc1C(=O)Nc1ccc(F)c(C(N)=O)c1 [Compound 103, N-(3-Carbamoyl-4-fluoro-phenyl)-6-(1-fluoro-1-methyl-ethyl)-4-[2-methoxy-4-(trifluoromethoxy)phenoxy]pyridine-3-carboxamide] | 7.47 |
| CNC(=O)c1cc(NC(=O)c2cnc(C(F)(F)F)cc2Oc2ccc(OC(F)(F)F)cc2OC)cc(C)n1 [Compound 265, 4-[[4-[2-methoxy-4-(trifluoromethoxy)phenoxy]-6-(trifluoromethyl)pyridine-3-carbonyl]amino]-N,6-dimethyl-pyridine-2-carboxamide] | 5.84 |

Continued by rising pIC50, values first:

| pIC50 | SMILES |
| --- | --- |
| 8.22 | COc1cc(OC(F)(F)F)ccc1Oc1cc(Cl)c(C)c(F)c1C(=O)Nc1cc(C(N)=O)ncc1C [Compound 211, 4-[[4-Chloro-2-fluoro-6-[2-methoxy-4-(trifluoromethoxy)phenoxy]-3-methyl-benzoyl]amino]-5-methyl-pyridine-2-carboxamide] |
| 8.30 | COc1cc(OC(F)(F)F)ccc1Oc1ccc(C(F)(F)F)c(F)c1C(=O)Nc1cccc(C(N)=O)c1 [Compound 44, N-(3-carbamoylphenyl)-2-fluoro-6-[2-methoxy-4-(trifluoromethoxy)phenoxy]-3-(trifluoromethyl)benzamide] |
| 8.40 | [2H]C([2H])([2H])Oc1cc(OC(F)(F)F)ccc1Oc1ccc(C(F)(F)F)c(F)c1C(=O)Nc1ccc(C(N)=O)cc1 [Compound 127, N-(4-carbamoylphenyl)-2-fluoro-6-[2-(trideuteriomethoxy)-4-(trifluoromethoxy)phenoxy]-3-(trifluoromethyl)benzamide] |
| 8.70 | [2H]C([2H])([2H])Oc1c(Oc2ccc(C(F)(F)F)c(F)c2C(=O)Nc2ccnc(C(N)=O)c2)ccc(OC(F)(F)F)c1F [Compound 218, 4-[[2-Fluoro-6-[3-fluoro-2-(trideuteriomethoxy)-4-(trifluoromethoxy)phenoxy]-3-(trifluoromethyl)benzoyl]amino]pyridine-2-carboxamide] |
